In patent US7514432B2, “Compounds and methods of treating cell proliferative diseases, retinopathies and arthritis” (Exonhit Therapeutics SA, priority 2003, dated 2009):

Columns and labels:
[1] = test system: intersegmental vessels of zebrafish embryos; assay: In vivo zebrafish angiogenesis assay; details: embryos 20 hpf, incubated 28 hours; for max inhibition of intersegmental vessels formation: 1% DMSO
Procedure: FIG. 6: In vivo zebrafish angiogenesis assay. 20 Hours post fertilization (hpf) embryos Were incubated with compounds and 1% DMSO for 28 hours. Vessels were stained with NBT/BCIP and morphometric analyses were done using the Adobe Photoshop software. For each condition, 10 embryos were analyzed and results were expressed as means±SEM. (A) dose response curves. (B) table presenting the 50% and max inhibition of intersegmental vessels formation together with the percentage of dead embryos (see material and methods).
In vivo zebrafish angiogenesis model: This assay is a viable and validated whole animal model for screening small molecules that affect blood vessel formation (Serbedzija et al, Angiogenesis, 1999). The study was subcontracted to Phylonix Pharmaceutical, Cambridge, Mass., USA. • Drug treatment: Intersegmental vessels (ISVs) in zebrafish are well accepted as angiogenic vessels, and they are easily observed using microscopy. By 20 hpf stage, the major vasculogenic vessels (dorsal aorta and caudal vein) have developed. By 48 hours post fertilization (hpf), ISVs have formed by sprouting from the dorsal aorta and caudal vein. Therefore, 20 hpf was used as the starting point and 48 hpf as the end point for drug treatment. Zebrafish embryos staged at 20 hpf were incubated with compound solution at 28° C. for 28 hours in 6-well plates, 20 embryos per well. Embryos treated with 1% DMSO and 5 μM Flavopiridol were used as negative and positive controls, respectively. • Microscopy: All light microscopy studies were performed using a ZEISS Stemi 2000-C stereomicroscope (Zeiss), equipped with a digital spot camera (Diagnostic Instruments Inc.). Images were further processed and analyzed using Adobe Photoshop 7.0 (Adobe). • Whole mount EAP staining: Embryos were fixed in 4% PFA for 2 hours at room temperature, and dehydrated in 100% ethanol following standard procedures. Embryos were then rehydrated, blocked, and stained with NBT/BCIP. After washing, embryos were examined by microscopy. • Quantitation of anti-angiogenic effects: To quantitate anti-angiogenic effects, 5 well developed trunk ISVs located around the anal pore were selected and morphometric analysis [area (pixel)× signal intensity] was performed using Adobe Photoshop. For each condition, 10 embryos were assessed and the mean value of 10 images was calculated using EXCEL software program (Microsoft Corporation). To calculate the inhibitory effect, the mean value of signal (S) in 5 ISVs in drug treated embryos was divided by mean value of S in DMSO control embryos, and calculated as % inhibition using the following formula: […]

[2] = test system: REF cells; assay: Lamellipodia/ruffles formation after wounding; format: cell-based
Procedure: This assay has been described by Nobes & Hall (J. Cell Biol., 1999). • Preparation of REF cells: REF cells are prepared from 15-18 E14 embryos. Briefly, the head, tail and viscerae are removed from the embryo. Only the torso is kept, sliced into small squares, washed, treated with trypsin-EDTA for 20 min. at 37° C., resuspended in medium, counted and plated. After 24 h, the cells are trypsinized and frozen in cryovials. 48 h before the wound healing assay, the cells are plated on coverslips. The day of the experiment, the cells are treated with the test compounds or DMSO alone. After 30 min., a scrape is done in the center of the coverslip using a small pipette tip. The cells are washed and fresh medium containing the compound or the DMSO is added. • Time-Lapse microscopy: The dishes containing the scraped coverslips and the treatment medium, sealed with parafilm is put under a thermostated microscope (37° C.) coupled to a video camera and a computer. Microscope images were collected every 5 minutes and recorded using the OpenLab software. When the assay is terminated (after 4 to 24 hours), pictures and movies are analyzed using the Metamorphe software. The pictures were calibrated (pixel converted to μm), and the velocity and total distance covered were calculated after tracking 7 to 10 single cells on the movies. […] The position of each point was recorded. […]

[3] = test system: REF cells; assay: Wound healing assay (time-lapse microscopy); format: cell-based; details: time lapse 8 hours
Procedure: FIG. 4: Migration assays. (A) Wound healing assay in REF cells. 7.6 10^4 cells were plated on coverslips 48 hours before the experiment. The cells were pre-treated for 30 min. with the compounds, and then a scrape was done using a pipette tip. The scraped coverslips in treatment medium were put under a thermostated microscope coupled to a video camera. Movies were analyzed as described in material and methods, and velocity and total distance covered by the cells were evaluated. Bar graphs represent the mean±SEM of 2 to 4 experiments. (B) Boyden chamber migration assay in HMEC1, NIH3T3 and MDA-MB-231 cells. […] After labeling, cells were washed with HBSS and fluorescence was read in a fluorescence plate reader. Fluorescence values were normalized against the fluorescence obtained for the 1% DMSO control. […]
This assay has been described by Nobes & Hall (J. Cell Biol., 1999). • Preparation of REF cells: REF cells are prepared from 15-18 E14 embryos. […] Only the torso is kept, sliced into small squares, washed, treated with trypsin-EDTA for 20 min. at 37° C., resuspended in medium, counted and plated. […] Microscope images were collected every 5 minutes and recorded using the OpenLab software. When the assay is terminated (after 4 to 24 hours), pictures and movies are analyzed using the Metamorphe software. […] The position of each point was recorded. […]

## CN1CCN(Cc2cc(=O)c(OCCCCCSc3ccnc4cc(C(F)(F)F)ccc34)co2)CC1.Cl.Cl.Cl [EHT 9241, 5-(5-(7-(Trifluoromethyl)quinolin-4-ylthio)pentyloxy)-2-((4-methylpiperazin-1-yl)methyl)-4H-pyran-4-one trihydrochloride]
[1]
  max inhibition of intersegmental vessels formation: 40%
[2]
  lamellipodia/ruffles formation after wounding: dose-dependent inhibition of lamellipodia/ruffles formation
[3]; 10 μM
  decrease of migration of REF cells (velocity and total distance covered): 36%

## Cl.Cl.O=c1cc(CN2CCOCC2)occ1OCCCCCSc1ccnc2cc(C(F)(F)F)ccc12 [EHT 1864, 5-(5-(7-(Trifluoromethyl)quinolin-4-ylthio)pentyloxy)-2-(morpholinomethyl)-4H-pyran-4-one dihydrochloride]
[1]
  anti-angiogenic activity in the zebrafish embryo: dose-dependent anti-angiogenic activity
  toxicity in zebrafish embryos: much less toxic than reference compounds Flavopiridol and SU-5416
  max inhibition of intersegmental vessels formation: 77%
[2]
  lamellipodia/ruffles formation after wounding: dose-dependent inhibition of lamellipodia/ruffles formation
[3]; 30 μM
  decrease of migration of REF cells (velocity and total distance covered): about 48%
